{
  "source": "ChEMBL document CHEMBL5725765",
  "about": "“Inhibitors of lysine specific demethylase-1” (2017)",
  "target": "Lysine-specific histone demethylase 1A (Homo sapiens, UniProt O60341)",
  "assay": "In Vitro Enzyme Inhibition Assay: This assay determines the ability of a test compound to inhibit LSD1 demethylase activity.",
  "note": "pIC50: −log10 of the molar value.",
  "data": [
    {"molecule": "Cn1c(N2CCC(N)CC2)nc(-c2ccc(C#N)c(F)c2)c(-c2ccc3c(ccn3C)c2)c1=O", "values": [
      {"measurement": "pIC50", "value": "> 7.00"}
    ]},
    {"molecule": "Cn1c(N2CCC(N)CC2)nc(-c2ccc(C#N)c(F)c2)c(-c2ccc3cc[nH]c3c2)c1=O", "values": [
      {"measurement": "pIC50", "value": "> 7.00"}
    ]},
    {"molecule": "Cn1c(N2CCC(N)CC2)nc(-c2ccc(C#N)c(F)c2)c(-c2ccc(C(F)(F)F)nc2)c1=O", "values": [
      {"measurement": "pIC50", "value": "> 7.00"}
    ]},
    {"molecule": "Cn1c(N2CCC(N)CC2)nc(-c2ccc(C#N)c(F)c2)c(-c2ccc3c(cnn3C)c2)c1=O", "values": [
      {"measurement": "pIC50", "value": "> 7.00"}
    ]},
    {"molecule": "Cn1c(N2CCC(N)CC2)nc(-c2ccc(C#N)cc2)c(-c2ccc3c(cnn3C)c2)c1=O", "values": [
      {"measurement": "pIC50", "value": "> 7.00"}
    ]},
    {"molecule": "Cn1cc2cc(-c3c(-c4ccc(C#N)cc4)nc(N4CCC(N)CC4)n(C)c3=O)ccc2n1", "values": [
      {"measurement": "pIC50", "value": "> 7.00"}
    ]},
    {"molecule": "Cn1c(N2CCC(N)CC2)nc(-c2ccc(O)cc2)c(-c2ccc3c(ccn3C)c2)c1=O", "values": [
      {"measurement": "pIC50", "value": "< 5.00"}
    ]}
  ]
}
